# Target: T1, sGC (Rattus norvegicus, UniProt P20595)
# T1 construct: Rat primary neurons were isolated from timed-pregnant female Sprague-Dawley (SD) rats; endogenous in cells; host or cells: rat primary neurons (Sprague-Dawley)
# T1 sequence (P20595 1-619): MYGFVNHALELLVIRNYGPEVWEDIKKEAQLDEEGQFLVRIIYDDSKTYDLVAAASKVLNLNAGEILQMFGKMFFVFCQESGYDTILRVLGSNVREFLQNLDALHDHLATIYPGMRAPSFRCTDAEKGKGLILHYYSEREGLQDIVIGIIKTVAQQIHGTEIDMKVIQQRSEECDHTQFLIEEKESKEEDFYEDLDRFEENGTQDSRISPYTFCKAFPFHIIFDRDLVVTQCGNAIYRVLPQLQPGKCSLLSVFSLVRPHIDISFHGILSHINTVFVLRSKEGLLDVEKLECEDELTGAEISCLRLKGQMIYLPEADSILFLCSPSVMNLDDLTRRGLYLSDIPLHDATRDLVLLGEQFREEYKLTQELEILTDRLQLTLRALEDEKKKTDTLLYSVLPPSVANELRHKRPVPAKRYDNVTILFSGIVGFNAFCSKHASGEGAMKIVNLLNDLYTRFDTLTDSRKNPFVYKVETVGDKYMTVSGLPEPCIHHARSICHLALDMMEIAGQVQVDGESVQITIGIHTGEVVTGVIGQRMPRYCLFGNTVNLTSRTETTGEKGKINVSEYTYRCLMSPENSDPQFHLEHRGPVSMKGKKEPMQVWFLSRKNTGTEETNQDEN
# T1 sequence (P19686 1-690 partner): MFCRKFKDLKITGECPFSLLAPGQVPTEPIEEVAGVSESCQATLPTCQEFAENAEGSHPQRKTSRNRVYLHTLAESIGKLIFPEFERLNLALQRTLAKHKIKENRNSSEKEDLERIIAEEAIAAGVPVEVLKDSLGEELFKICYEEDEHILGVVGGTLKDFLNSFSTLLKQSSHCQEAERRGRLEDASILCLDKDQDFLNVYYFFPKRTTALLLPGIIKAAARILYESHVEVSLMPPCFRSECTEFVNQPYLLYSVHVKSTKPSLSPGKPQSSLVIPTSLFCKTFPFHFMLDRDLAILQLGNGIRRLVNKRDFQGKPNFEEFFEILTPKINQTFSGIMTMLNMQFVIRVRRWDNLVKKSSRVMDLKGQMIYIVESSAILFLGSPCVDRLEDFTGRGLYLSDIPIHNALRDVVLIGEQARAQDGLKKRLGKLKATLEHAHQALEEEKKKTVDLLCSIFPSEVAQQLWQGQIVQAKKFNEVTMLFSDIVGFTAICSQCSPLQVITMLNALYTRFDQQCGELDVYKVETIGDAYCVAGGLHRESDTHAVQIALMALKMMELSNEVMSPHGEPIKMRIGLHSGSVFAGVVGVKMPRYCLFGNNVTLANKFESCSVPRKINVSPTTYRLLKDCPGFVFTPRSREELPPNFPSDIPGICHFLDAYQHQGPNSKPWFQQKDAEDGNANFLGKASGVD
# Assay: cGMP measurement in rat primary neurons (neuronal-based cell assay)
# Settings: rat primary neurons (Sprague-Dawley); 0.5 mM IBMX; test compound with fixed DETA (Diethylenetriamine NONOate); 20 min at 37° C.; cGMP by CatchPoint kit; read-out: sGC Neuron EC50
# Experimental: Example 2: cGMP Measurement in Rat Primary Neurons
# Rat primary neurons were isolated from timed-pregnant female Sprague-Dawley (SD) rats, washed once with HBSS with calcium and magnesium and incubated with a solution containing 0.5 mM 3-isobutyl-1-methylxanthine (IBMX) in HBSS (80 μL/well) at 37° C. for 15 min. Next, a 5× stock […] of test compound with a fixed concentration of DETA (Diethylenetriamine NONOate) was added to the wells to make x nM concentration for test compound solutions and a 30 µM concentration for DETA solution, where x was 1 of the following final concentrations: 0.029, 0.114, 0.460, 1.83, 7.32, 29.29, 117.2, 468.8, 1875, 7500 and 30,000 nM. Then, the cells were incubated for 20 min at 37° C. At the end of incubation, 100 μL lysis buffer (Molecular Devices) was added to cells. CatchPoint™ Cyclic-GMP Fluorescent Assay Kit was used with Molecular Devices' ID3 multi-mode plate reading. Sample cGMP concentrations were extrapolated from standard curve using Softmax Pro 7 Software. A well-characterized, potent sGC stimulator was included in all assay runs and used as a positive control.
# Test compound (“agonist”) concentrations vs extrapolated cGMP concentrations (“response”) were plotted and analyzed using GraphPad Prism version 9.4.1. Curve fit was used for each dataset; non-linear log(agonist) vs. response-variable slope (four parameters). The EC50 is interpolated from the curve fit and is defined as the concentration at which the compound elicits 50% of its maximal response. When the experiment is carried out more than two times, the geometric mean is reported, otherwise the arithmetic mean is shown. To increase the accuracy of the EC50 calculations, top and bottom parameters were constrained when consistent with the observed data in a given assay run. For instance, in assay runs where the cGMP response values in the absence of test article were consistent across plates, an average across all of these wells was used as a lower constraint in the calculations. In assay runs where the maximal cGMP responses were consistent with that of the positive control, a top constraint equal to the maximal cGMP response of the positive control was applied. If there was significant variability in cGMP response in no compound wells or variation in maximal responses across plates, no constraints were imposed.
row,SMILES,EC50 [nM]
1,"N#Cc1cn2cc(-c3ncc(F)c(O)n3)nc(Cc3cc(F)c(F)cc3F)c2n1 [Compound I-3, 6-(5-fluoro-4-hydroxypyrimidin-2-yl)-8-(2,4,5-trifluorobenzyl)imidazo[1,2-a]pyrazine-2-carbonitrile]",≤ 100
2,"CC(=O)c1cnc2c(Cc3cc(F)ccc3F)nc(-c3nc(C)c(F)c(O)n3)cn12 [Compound I-8, 1-(8-(2,5-difluorobenzyl)-6-(5-fluoro-4-hydroxy-6-methylpyrimidin-2-yl)imidazo[1,2-a]pyrazin-3-yl)ethan-1-one]",> 5000
3,"CC(=O)c1ccc(Cc2nc(-c3ncc(F)c(O)n3)cn3c(Cl)cnc23)c(F)c1 [Compound I-9, 1-(4-((3-chloro-6-(5-fluoro-4-hydroxypyrimidin-2-yl)imidazo[1,2-a]pyrazin-8-yl)methyl)-3-fluorophenyl)ethan-1-one]",> 5000
4,"COc1c(O)nc(-c2cn3ccnc3c(Cc3cc(F)c(C)cc3F)n2)nc1CF [Compound I-21, 2-(8-(2,5-difluoro-4-methylbenzyl)imidazo[1,2-a]pyrazin-6-yl)-6-(fluoromethyl)-5-methoxypyrimidin-4-ol]",100 to 1000
5,"CC(=O)c1cnc(-c2cn3ccnc3c(Cc3cc(F)c(C)cc3F)n2)nc1O [Compound I-24, 1-(2-(8-(2,5-difluoro-4-methylbenzyl)imidazo[1,2-a]pyrazin-6-yl)-4-hydroxypyrimidin-5-yl)ethan-1-one]",100 to 1000
6,"Cc1cc(F)c(Cc2nc(-c3ncc(CO)c(O)n3)cn3ccnc23)cc1F [Compound I-25, 2-(8-(2,5-difluoro-4-methylbenzyl)imidazo[1,2-a]pyrazin-6-yl)-5-(hydroxymethyl)pyrimidin-4-ol]",100 to 1000
7,"Cc1cc(F)c(Cc2nc(-c3nc(O)cc(CCO)n3)cn3ccnc23)cc1F [Compound I-26, 2-(8-(2,5-difluoro-4-methylbenzyl)imidazo[1,2-a]pyrazin-6-yl)-6-(2-hydroxyethyl)pyrimidin-4-ol]",> 5000
8,"COCc1nc(-c2cn3ccnc3c(Cc3cc(F)c(C)cc3F)n2)nc(O)c1OC [Compound I-27, 2-(8-(2,5-difluoro-4-methylbenzyl)imidazo[1,2-a]pyrazin-6-yl)-5-methoxy-6-(methoxymethyl)pyrimidin-4-ol]",> 5000
9,"CCc1cc(O)nc(-c2cn3ccnc3c(Cc3cc(F)c(C)cc3F)n2)n1 [Compound I-30, 2-{8-[(2,5-difluoro-4-methylphenyl)methyl]imidazo[1,2-a]pyrazin-6-yl}-6-ethylpyrimidin-4-ol]",1000 to 5000
10,"Cc1nc(-c2cn3c(C(C)O)cnc3c(Cc3cc(F)ccc3F)n2)nc(O)c1F (centres unmarked) [Compound I-31, 2-(8-(2,5-difluorobenzyl)-3-(1-hydroxyethyl)imidazo[1,2-a]pyrazin-6-yl)-5-fluoro-6-methylpyrimidin-4-ol]",> 5000
11,"COc1cnc2c(Cc3cc(F)c(C#N)cc3C)nc(-c3ncc(F)c(O)n3)cn12 [Compound I-32, 2-fluoro-4-((6-(5-fluoro-4-hydroxypyrimidin-2-yl)-3-methoxyimidazo[1,2-a]pyrazin-8-yl)methyl)-5-methylbenzonitrile]",> 5000
12,"CCOCc1nc(-c2cn3ncnc3c(Cc3cc(F)c(C)cc3F)n2)nc(O)c1F [Compound I-44, 2-(8-(2,5-difluoro-4-methylbenzyl)-[1,2,4]triazolo[1,5-a]pyrazin-6-yl)-6-(ethoxymethyl)-5-fluoropyrimidin-4-ol]",> 5000

# The remaining lines, values ahead:
row,EC50 [nM],SMILES
1,> 5000,"Cc1cc(C#N)c(F)cc1Cc1nc(-c2ncc(F)c(O)n2)cn2c(F)cnc12 [Compound I-4, 2-fluoro-4-((3-fluoro-6-(5-fluoro-4-hydroxypyrimidin-2-yl)imidazo[1,2-a]pyrazin-8-yl)methyl)-5-methylbenzonitrile]"
2,1000 to 5000,"Cc1cc(F)c(Cc2nc(-c3nc(O)c(F)c(CF)n3)cn3ncnc23)cc1F [Compound I-5, 2-(8-(2,5-difluoro-4-methylbenzyl)-[1,2,4]triazolo[1,5-a]pyrazin-6-yl)-5-fluoro-6-(fluoromethyl)pyrimidin-4-ol]"
3,> 5000,"Cc1cnc2c(Cc3cc(F)c(Cl)cc3F)nc(-c3nc(O)c(F)c(O)n3)cn12 [Compound I-6, 2-(8-(4-chloro-2,5-difluorobenzyl)-3-methylimidazo[1,2-a]pyrazin-6-yl)-5-fluoropyrimidine-4,6-diol]"
4,> 5000,"COc1cnc2c(Cc3cc(F)c(C)cc3F)nc(-c3ncc(C)c(O)n3)cn12 [Compound I-7, 2-(8-(2,5-difluoro-4-methylbenzyl)-3-methoxyimidazo[1,2-a]pyrazin-6-yl)-5-methylpyrimidin-4-ol]"
5,> 5000,"CSc1cnc2c(Cc3cc(F)c(C)cc3F)nc(-c3nc(O)c(C)c(Br)n3)cn12 [Compound I-12, 6-bromo-2-(8-(2,5-difluoro-4-methylbenzyl)-3-(methylthio)imidazo[1,2-a]pyrazin-6-yl)-5-methylpyrimidin-4-ol]"
6,≤ 100,"Cc1cc(F)c(Cc2nc(-c3ncc(C#N)c(O)n3)cn3c(F)cnc23)cc1F [Compound I-17, 2-(8-(2,5-difluoro-4-methylbenzyl)-3-fluoroimidazo[1,2-a]pyrazin-6-yl)-4-hydroxypyrimidine-5-carbonitrile]"
7,100 to 1000,"COCc1nc(-c2cn3ccnc3c(Cc3cc(F)c(C)cc3F)n2)nc(O)c1F [Compound I-22, 2-(8-(2,5-difluoro-4-methylbenzyl)imidazo[1,2-a]pyrazin-6-yl)-5-fluoro-6-(methoxymethyl)pyrimidin-4-ol]"
8,100 to 1000,"Cc1cc(F)c(Cc2nc(-c3ncc(C(C)O)c(O)n3)cn3ccnc23)cc1F (centres unmarked) [Compound I-28, 2-(8-(2,5-difluoro-4-methylbenzyl)imidazo[1,2-a]pyrazin-6-yl)-5-(1-hydroxyethyl)pyrimidin-4-ol]"
9,100 to 1000,"COc1cnc2c(Cc3cc(F)c(C)cc3F)nc(-c3ncc(Cl)c(O)n3)cn12 [Compound I-29, 5-chloro-2-{8-[(2,5-difluoro-4-methylphenyl)methyl]-3-methoxyimidazo[1,2-a]pyrazin-6-yl}pyrimidin-4-ol]"
10,1000 to 5000,"Cc1cc(F)c(Cc2nc(-c3ncc(F)c(O)n3)cn3c(CO)cnc23)cc1F [Compound I-35, 2-(8-(2,5-difluoro-4-methylbenzyl)-3-(hydroxymethyl)imidazo[1,2-a]pyrazin-6-yl)-5-fluoropyrimidin-4-ol]"
11,100 to 1000,"Cc1cc(F)c(Cc2nc(-c3nc(O)c(F)c(CF)n3)cn3ccnc23)cc1F [Compound I-45, 2-(8-(2,5-difluoro-4-methylbenzyl)imidazo[1,2-a]pyrazin-6-yl)-5-fluoro-6-(fluoromethyl)pyrimidin-4-ol]"
